Assay results reported in patent publication US20100010078A1, “METHODS OF TREATING ANDROGEN DEPENDENT PROSTATE CANCER BY ADMINISTERING AN ACTIVE PHARMACEUTICAL INGREDIENT BEING FISETIN, 3,3',4',7-TETRAHYDROXYFLAVONE OR A DERIVATIVE THEREOF, IN AN ORAL, TRANSDERMAL OR TOPICAL DOSAGE FORM” (priority 2008, published 2010).
Read-outs that look alike come from different tables or passages of the source.

Legend:
Bax and Bcl-2 = assay: Western blot, Bax and Bcl-2 in LNCaP cells; type: cell-based, human; settings: fisetin 10-60 μM, 48 h
Method: (§1) Protein extraction and western blotting. Following the treatment of LNCaP cells with fisetin (10-60 μM; 48 h), the media was aspirated, the cells were washed with cold PBS (pH 7.4), and ice-cold lysis buffer (50 mM Tris-HCl, 150 mM NaCl, 1 mM EGTA, 1 mM EDTA, 20 mM NaF, 100 mM Na3VO4, 0.5% NP-40, 1% Triton X-100, 1 mM PMSF (pH 7.4)) with freshly added protease inhibitor cocktail (Protease Inhibitor Cocktail Set III, Calbiochem, La Jolla, Calif.) over ice for 30 min. The cells were scraped and the lysate was collected in a microfuge tube and passed through a needle to break up the cell aggregates. The lysate was cleared by centrifugal ion al 14,000 g for 15 min at 4° C. and the supernatant (whole cell lysate) was used or immediately stored at −8020 C.
(§2) For western blotting, 30-50 μg protein was resolved over 8-12% polyacrylamide gels and transferred to a nitrocellulose membrane. The blot was blocked in blocking buffer (5% nonfat dry milk/1% Tween 20; in 20 mM TBS, pH 7.6) for 1 hr at room temperature, incubated with appropriate monoclonal or polyclonal primary antibody in blocking buffer for 1.5 h to overnight at 4° C., followed by incubation with anti-mouse or anti-rabbit secondary antibody horseradish peroxidase conjugate obtained from Amersham Life Science Inc. and detected by chemiluminescence and autoradiography using XAR-5 film obtained from Eastman Kodak Co. (Rochester, N.Y., USA). Densitometric measurements of the band in Western blot analysis were performed using digitalized scientific software program UN-SCAN-IT (Silk Scientific Corporation. Orem, Utah.

PC-3 cells = assay: MTT cell viability assay, PC-3 cells; type: cell-based; settings: Homo sapiens, read-out: decrease in cell viability; for cytotoxicity at 10 µM: PC-3, fisetin 10 μM; for cytotoxicity at 20 µM: PC-3, fisetin 20 μM; for cytotoxicity at 40 µM: PC-3, fisetin 40 μM; for cytotoxicity at 60 µM: PC-3, fisetin 60 μM
Method: (§3) obtained from ATCC (Manassas, Va.). LNCaP cells were cultured in Dulbecco's Modified Eagle's medium supplemented with 5% heat-inactivated fetal bovine serum and 1% penicillin/streptomycin (P-S). CWR22Ru1 and PC-3 cells were grown in RPMI 1640 (Invitrogen) supplemented with 10% fetal bovine serum and 1% P-S. Human prostate epithelial cells (PrEC) were obtained from Cambrex Bioscience (Walkersville, Md.) and grown in prostate epithelial basal cell medium (Cambrex Bioscience) according to the manufacturer's instructions. The cells were maintained under standard cell culture conditions at 37° C. and 5% CO2 in a humid environment. Fisetin dissolved in dimethyl sulfoxide (final concentration 0.1% v/v) was used for the treatment of cells. The cells (60-70% confluent) were treated with fisetin (10-60 μM) for 24 and 48 h in complete growth medium.
(§4) Cell viability. The effect of fisetin on the viability of cells was determined by 3-[4,5-dimethylthiazol-2-yl]-2,5-diphenyl tetrazoliumbromide assay. LNCaP, CWR22Ru1, PC-3 and PrEC cells were plated at 1×10^4 cells per well in 200 μl of complete culture medium containing 10-60 μM concentrations of fisetin in 96-well microtiter plates for 24 and 48 h. After incubation for specified times at 37° C. in a humidified incubator, 3-[4,5-dimethylthiazol-2-yl]-2,5-diphenyl tetrazoliumbromide (5 mg/ml in PBS) was added to each well and incubated for 2 h, after which the plate was centrifuged at 1,800×g for 5 min at 4° C. The absorbance was recorded on a microplate reader at the wavelength of 540 nm. The effect of fisetin on growth inhibition was assessed as percent cell viability where DMSO-treated cells were taken as 100% viable. DMSO at the concentrations used was without any effect on cell viability.

WAF1/p21 and KIP1/p27 = assay: Western blot, WAF1/p21 and KIP1/p27 in LNCaP cells; type: cell-based, human; settings: fisetin 10-60 μM, 48 h
Method: as §1, with “The lysate was cleared by centrifugal ion al 14,000 g for 15 min at 4° C. and the supernatant (whole cell lysate) was used or immediately stored at −8020 C.” left out
as §2, with “Densitometric measurements of the band in Western blot analysis were performed using digitalized scientific software program UN-SCAN-IT (Silk Scientific Corporation. Orem, Utah.” left out

[1] = test system: PI3K (p85), Akt (Ser473 and Thr308); assay: Western blot, PI3K (p85) and phosphorylation of Akt in LNCaP cells; type: cell-based, human; settings: fisetin 10-60 μM, 48 h
Method: as §1, with “The lysate was cleared by centrifugal ion al 14,000 g for 15 min at 4° C. and the supernatant (whole cell lysate) was used or immediately stored at −8020 C.” left out
as §2, with “Densitometric measurements of the band in Western blot analysis were performed using digitalized scientific software program UN-SCAN-IT (Silk Scientific Corporation. Orem, Utah.” left out

LNCaP cells [2] = assay: Apoptosis by Cell Death Detection ELISAPLUS; type: cell-based, human; settings: 48 h
Method: Apoptosis by ELISA. Following treatment of LNCaP cells with fisetin (10-60 μM; 48 h), the extent of apoptosis was determined by Cell Death Detection ELISA^PLUS assay, according to the manufacturer's protocol. The whole cell lysate (40 μg of total protein) was added to the lysis buffer and pipetted on a streptavidin-coated 96-well microtiter plate to which the immunoreagent mix was added and incubated for 2 h at room temperature, with continuous shaking at 500 rpm. The wells were then washed with washing buffer, the substrate solution added, the color developed (10-20 min) was read at 405 nm against the blank, reference wavelength of 490 nm. The enrichment factor (total amount of apoptosis) was calculated by dividing the absorbance of the sample (A405 nm) by the absorbance of the controls without treatment ([…]).

CWR22Ru1 cells = assay: MTT cell viability assay, CWR22Ru1 cells; type: cell-based; settings: Homo sapiens, read-out: decrease in cell viability; for cytotoxicity at 10 µM: CWR22Ru1, fisetin 10 μM; for cytotoxicity at 20 µM: CWR22Ru1, fisetin 20 μM; for cytotoxicity at 40 µM: CWR22Ru1, fisetin 40 μM; for cytotoxicity at 60 µM: CWR22Ru1, fisetin 60 μM
Method: as §3, §4

LNCaP cells [3] = assay: MTT cell viability assay, LNCaP cells; type: cell-based; settings: Homo sapiens, read-out: decrease in cell viability; for cytotoxicity at 10 µM: fisetin 10 μM; for cytotoxicity at 20 µM: fisetin 20 μM; for cytotoxicity at 40 µM: fisetin 40 μM; for cytotoxicity at 60 µM: fisetin 60 μM
Method: as §3, §4

cdk2, cdk4 and cdk6 = assay: Western blot, cdks in LNCaP cells; type: cell-based, human; settings: fisetin 10-60 μM, 48 h
Method: as §1, with “The lysate was cleared by centrifugal ion al 14,000 g for 15 min at 4° C. and the supernatant (whole cell lysate) was used or immediately stored at −8020 C.” left out
as §2, with “Densitometric measurements of the band in Western blot analysis were performed using digitalized scientific software program UN-SCAN-IT (Silk Scientific Corporation. Orem, Utah.” left out

In the case of O=c1c(O)c(-c2ccc(O)c(O)c2)oc2cc(O)ccc12 [fisetin, 3,3′,4′,7-tetrahydroxyflavone], the “protein expression of Bax” value (Bax and Bcl-2) is reported as “significant increase”, the “protein expression of Bcl-2” value (Bax and Bcl-2) is reported as “significantly decreased” and the “ratio of Bax to Bcl-2” value (Bax and Bcl-2) is reported as “significant dose-dependent shift”. For the same compound, the cytotoxicity at 10 µM (PC-3 cells; 24 h) was 7%, the cytotoxicity at 10 µM (PC-3 cells; 48 h) was 11% and the cytotoxicity at 20 µM (PC-3 cells; 24 h) was 18%. The cytotoxicity at 20 µM (PC-3 cells; 48 h) was 25%, the cytotoxicity at 40 µM (PC-3 cells; 24 h) was 24% and the cytotoxicity at 40 µM (PC-3 cells; 48 h) was 32%. The cytotoxicity at 60 µM (PC-3 cells; 24 h) was 33%, the cytotoxicity at 60 µM (PC-3 cells; 48 h) was 46% and the “protein expression of WAF1/p21 and KIP1/p27” value (WAF1/p21 and KIP1/p27) was “induction”. The “expression of regulatory (p85) subunit of PI3K” value [1] was “inhibition”, the “phosphorylation of Akt at Ser473 and Thr308” value [1] was “inhibited” and the “apoptosis as compared to control” value (LNCaP cells [2]; fisetin 10 μM) was 40%. For the same compound, the “apoptosis as compared to control” value (LNCaP cells [2]; fisetin 20 μM) was 64%, the “apoptosis as compared to control” value (LNCaP cells [2]; fisetin 40 μM) was 103% and the “apoptosis as compared to control” value (LNCaP cells [2]; fisetin 60 μM) was 106%. It also gave a cytotoxicity at 10 µM (CWR22Ru1 cells; 24 h) of 12%, a cytotoxicity at 10 µM (CWR22Ru1 cells; 48 h) of 18% and a cytotoxicity at 20 µM (CWR22Ru1 cells; 24 h) of 26%. For the same compound, the cytotoxicity at 20 µM (CWR22Ru1 cells; 48 h) was 34%, the cytotoxicity at 40 µM (CWR22Ru1 cells; 24 h) was 38% and the cytotoxicity at 40 µM (CWR22Ru1 cells; 48 h) was 44%. For the same compound, the cytotoxicity at 60 µM (CWR22Ru1 cells; 24 h) was 52%, the cytotoxicity at 60 µM (CWR22Ru1 cells; 48 h) was 55% and the cytotoxicity at 10 µM (LNCaP cells [3]; 24 h) was 15%. The cytotoxicity at 10 µM (LNCaP cells [3]; 48 h) was 19%, the cytotoxicity at 20 µM (LNCaP cells [3]; 24 h) was 33% and the cytotoxicity at 20 µM (LNCaP cells [3]; 48 h) was 40%. For the same compound, the cytotoxicity at 40 µM (LNCaP cells [3]; 24 h) was 45%, the cytotoxicity at 40 µM (LNCaP cells [3]; 48 h) was 49% and the cytotoxicity at 60 µM (LNCaP cells [3]; 24 h) was 57%. The cytotoxicity at 60 µM (LNCaP cells [3]; 48 h) was 62% and the “protein expression of cdk2, 4 and 6” value (cdk2, cdk4 and cdk6) was “dose-dependent decrease”.
